pIC50, pKi: −log10 of the molar value.

For one assay, the target named is p110δ (Homo sapiens, UniProt O00329). The conditions noted are these: read-out: in vitro IC50 δ; cited from earlier work.
The target in a further assay is p110γ (Homo sapiens, UniProt P48736). The conditions noted are these: read-out: in vitro IC50 γ; cited from earlier work.
The next assay has as its target C2β (Homo sapiens, UniProt O00750). The conditions noted are these: read-out: in vitro IC50 C2β; cited from earlier work.
Assay [1] relates to caerulein-treated KC mice. The assay is described as follows: Caerulein-induced pancreatic injury in oncogenic Kras (KC) mice. It counts as in vivo. The settings on record: KrasG12D background, 10 mg/kg by gavage. An excerpt:
The LSL-Kras^G12D (from D Tuveson, Mouse Models of Human Cancers Consortium repository (NCI-Frederick, USA), Pdx1-cre (from DA Melton, Harvard University, Cambridge, Mass., USA), p110α^lox (from B. Vanhaesebroeck, UCL, London), strains were interbred on mixed background (CD1/C57B16) to obtain compound mutant Pdx1-Cre;LSL-Kras^G12D (named KC), pdx1-Cre;p110α^lox/lox (Pdx1-Cre;p110α^lox/lox were named α^inC; pdx1-Cre;LSL-Kras^G12D;p110α^lox/lox were named Kα^inC). Littermates not expressing Cre as well as Pdx1-Cre and p110α^lox/lox mice of the same age were used as control. All procedures and animal housing are conformed to the regulatory standards and were approved by the Ethical committee according to European legislation translated to French Law as Décret 2013-118 1 Feb. 2013 (APAFIS 3601-2015121622062840). Genotyping was performed as described: the genetically modified allele is called p110α^lox or p110α^ΔDFG (here named Rec) after Cre recombination. DFG is a conserved motif in the activation loop of the p110α kinase domain critical for its catalytic activity. The gene targeting strategy used is different from a traditional conditional knock-out strategy. […] Primers corresponds to post-cre primers used to verify the presence of recombined allele ΔDFG: ma9: -[…]; ma5: […]; annealing temperature: 65° C.; recombined ΔDFG-544 bp, wild type (+) or unrecombined lox- >10 kbp amplicon. Genotyping of tail or pancreas samples was performed after DNA extraction with Sigma kit (XNAT-100RXN).
Animals were euthanized 1, 3, 7 or 17 days later, and recombination verified before analysis as described in [44, 45].
Immunostainings were conducted using standard methods on formalin-fixed, paraffin-embedded tissues, including both mice and human pancreas.

In the next assay the target is mTOR (Homo sapiens, UniProt P42345). The settings on record: cited from earlier work.
Another assay has as its target p110β (Homo sapiens, UniProt P42338). The settings on record: read-out: in vitro IC50 β; cited from earlier work.
In another assay the target is C2α (Homo sapiens, UniProt O00443). The conditions noted are these: read-out: in vitro IC50 C2α; cited from earlier work.
The target in another assay is vps34 (Homo sapiens, UniProt Q8NEB9). The conditions noted are these: read-out: in vitro IC50 vps34; cited from earlier work.
Sequence of vps34 (Q8NEB9 whole entry, species assumed): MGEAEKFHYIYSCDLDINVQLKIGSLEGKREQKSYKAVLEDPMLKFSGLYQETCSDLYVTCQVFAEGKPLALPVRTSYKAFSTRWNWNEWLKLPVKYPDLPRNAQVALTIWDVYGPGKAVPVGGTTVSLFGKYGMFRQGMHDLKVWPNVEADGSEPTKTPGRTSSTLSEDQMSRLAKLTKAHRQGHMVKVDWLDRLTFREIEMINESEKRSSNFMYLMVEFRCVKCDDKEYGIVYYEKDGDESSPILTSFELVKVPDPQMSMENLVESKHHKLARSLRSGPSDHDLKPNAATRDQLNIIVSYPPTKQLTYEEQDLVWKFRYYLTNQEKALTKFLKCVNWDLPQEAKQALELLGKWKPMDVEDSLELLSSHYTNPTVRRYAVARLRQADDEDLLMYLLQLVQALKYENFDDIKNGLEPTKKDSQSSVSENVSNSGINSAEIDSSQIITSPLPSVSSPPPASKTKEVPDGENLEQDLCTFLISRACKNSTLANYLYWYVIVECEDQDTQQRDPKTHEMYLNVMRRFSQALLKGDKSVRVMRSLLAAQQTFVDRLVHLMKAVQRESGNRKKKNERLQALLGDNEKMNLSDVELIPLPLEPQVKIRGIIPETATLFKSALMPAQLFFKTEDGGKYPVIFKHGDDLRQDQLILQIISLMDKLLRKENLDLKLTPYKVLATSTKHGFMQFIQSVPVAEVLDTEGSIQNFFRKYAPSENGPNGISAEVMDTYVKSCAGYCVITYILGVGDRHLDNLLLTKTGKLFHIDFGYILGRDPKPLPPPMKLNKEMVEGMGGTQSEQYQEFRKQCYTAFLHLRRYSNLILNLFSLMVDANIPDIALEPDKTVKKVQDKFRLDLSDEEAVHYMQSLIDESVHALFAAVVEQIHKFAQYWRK

Sequence of p110δ (O00329 whole entry): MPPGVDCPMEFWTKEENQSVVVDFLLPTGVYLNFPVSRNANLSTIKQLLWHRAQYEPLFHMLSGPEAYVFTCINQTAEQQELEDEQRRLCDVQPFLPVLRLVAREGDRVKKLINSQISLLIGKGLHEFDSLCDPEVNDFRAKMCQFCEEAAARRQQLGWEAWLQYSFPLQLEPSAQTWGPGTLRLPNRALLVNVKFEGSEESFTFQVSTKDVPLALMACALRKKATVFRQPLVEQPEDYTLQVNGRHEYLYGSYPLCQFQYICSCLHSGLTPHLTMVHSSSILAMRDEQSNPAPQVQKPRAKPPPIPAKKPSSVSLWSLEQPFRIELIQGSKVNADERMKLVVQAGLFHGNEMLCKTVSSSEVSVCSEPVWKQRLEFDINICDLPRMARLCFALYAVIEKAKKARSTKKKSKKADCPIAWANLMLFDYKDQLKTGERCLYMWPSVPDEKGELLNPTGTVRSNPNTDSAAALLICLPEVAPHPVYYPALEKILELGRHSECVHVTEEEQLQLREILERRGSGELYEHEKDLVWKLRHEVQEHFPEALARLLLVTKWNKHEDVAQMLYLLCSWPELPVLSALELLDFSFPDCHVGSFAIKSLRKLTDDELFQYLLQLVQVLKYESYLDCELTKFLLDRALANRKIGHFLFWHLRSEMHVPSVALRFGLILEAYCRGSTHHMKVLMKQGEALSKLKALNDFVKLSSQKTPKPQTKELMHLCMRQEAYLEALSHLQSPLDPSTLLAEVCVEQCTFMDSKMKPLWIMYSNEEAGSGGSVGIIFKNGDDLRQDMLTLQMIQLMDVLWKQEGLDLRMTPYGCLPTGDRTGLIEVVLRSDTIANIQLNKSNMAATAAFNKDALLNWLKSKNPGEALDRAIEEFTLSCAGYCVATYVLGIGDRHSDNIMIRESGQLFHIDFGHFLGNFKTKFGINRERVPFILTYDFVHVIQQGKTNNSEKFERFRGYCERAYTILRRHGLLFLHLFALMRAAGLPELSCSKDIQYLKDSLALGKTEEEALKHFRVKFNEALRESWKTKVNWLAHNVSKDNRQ
Sequence of p110δ (P27986 whole entry partner): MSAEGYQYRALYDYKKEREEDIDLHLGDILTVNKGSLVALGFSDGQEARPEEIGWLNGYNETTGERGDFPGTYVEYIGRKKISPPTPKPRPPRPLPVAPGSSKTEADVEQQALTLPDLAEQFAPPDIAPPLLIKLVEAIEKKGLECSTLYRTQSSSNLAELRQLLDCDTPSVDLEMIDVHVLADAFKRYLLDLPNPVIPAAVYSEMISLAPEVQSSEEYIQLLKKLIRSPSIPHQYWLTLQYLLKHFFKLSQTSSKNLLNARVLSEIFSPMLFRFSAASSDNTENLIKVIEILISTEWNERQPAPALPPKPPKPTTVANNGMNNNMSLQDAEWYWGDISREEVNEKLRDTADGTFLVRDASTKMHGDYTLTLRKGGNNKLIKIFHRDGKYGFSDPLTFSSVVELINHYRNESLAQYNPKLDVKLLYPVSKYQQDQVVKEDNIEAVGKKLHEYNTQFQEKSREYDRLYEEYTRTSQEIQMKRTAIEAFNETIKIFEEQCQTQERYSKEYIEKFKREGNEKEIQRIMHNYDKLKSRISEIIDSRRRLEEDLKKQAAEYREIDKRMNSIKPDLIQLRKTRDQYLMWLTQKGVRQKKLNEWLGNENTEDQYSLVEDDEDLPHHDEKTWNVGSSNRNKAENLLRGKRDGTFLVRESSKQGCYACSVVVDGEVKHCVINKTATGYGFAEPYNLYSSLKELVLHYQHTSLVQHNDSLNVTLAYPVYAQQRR
Sequence of C2β (O00750 whole entry): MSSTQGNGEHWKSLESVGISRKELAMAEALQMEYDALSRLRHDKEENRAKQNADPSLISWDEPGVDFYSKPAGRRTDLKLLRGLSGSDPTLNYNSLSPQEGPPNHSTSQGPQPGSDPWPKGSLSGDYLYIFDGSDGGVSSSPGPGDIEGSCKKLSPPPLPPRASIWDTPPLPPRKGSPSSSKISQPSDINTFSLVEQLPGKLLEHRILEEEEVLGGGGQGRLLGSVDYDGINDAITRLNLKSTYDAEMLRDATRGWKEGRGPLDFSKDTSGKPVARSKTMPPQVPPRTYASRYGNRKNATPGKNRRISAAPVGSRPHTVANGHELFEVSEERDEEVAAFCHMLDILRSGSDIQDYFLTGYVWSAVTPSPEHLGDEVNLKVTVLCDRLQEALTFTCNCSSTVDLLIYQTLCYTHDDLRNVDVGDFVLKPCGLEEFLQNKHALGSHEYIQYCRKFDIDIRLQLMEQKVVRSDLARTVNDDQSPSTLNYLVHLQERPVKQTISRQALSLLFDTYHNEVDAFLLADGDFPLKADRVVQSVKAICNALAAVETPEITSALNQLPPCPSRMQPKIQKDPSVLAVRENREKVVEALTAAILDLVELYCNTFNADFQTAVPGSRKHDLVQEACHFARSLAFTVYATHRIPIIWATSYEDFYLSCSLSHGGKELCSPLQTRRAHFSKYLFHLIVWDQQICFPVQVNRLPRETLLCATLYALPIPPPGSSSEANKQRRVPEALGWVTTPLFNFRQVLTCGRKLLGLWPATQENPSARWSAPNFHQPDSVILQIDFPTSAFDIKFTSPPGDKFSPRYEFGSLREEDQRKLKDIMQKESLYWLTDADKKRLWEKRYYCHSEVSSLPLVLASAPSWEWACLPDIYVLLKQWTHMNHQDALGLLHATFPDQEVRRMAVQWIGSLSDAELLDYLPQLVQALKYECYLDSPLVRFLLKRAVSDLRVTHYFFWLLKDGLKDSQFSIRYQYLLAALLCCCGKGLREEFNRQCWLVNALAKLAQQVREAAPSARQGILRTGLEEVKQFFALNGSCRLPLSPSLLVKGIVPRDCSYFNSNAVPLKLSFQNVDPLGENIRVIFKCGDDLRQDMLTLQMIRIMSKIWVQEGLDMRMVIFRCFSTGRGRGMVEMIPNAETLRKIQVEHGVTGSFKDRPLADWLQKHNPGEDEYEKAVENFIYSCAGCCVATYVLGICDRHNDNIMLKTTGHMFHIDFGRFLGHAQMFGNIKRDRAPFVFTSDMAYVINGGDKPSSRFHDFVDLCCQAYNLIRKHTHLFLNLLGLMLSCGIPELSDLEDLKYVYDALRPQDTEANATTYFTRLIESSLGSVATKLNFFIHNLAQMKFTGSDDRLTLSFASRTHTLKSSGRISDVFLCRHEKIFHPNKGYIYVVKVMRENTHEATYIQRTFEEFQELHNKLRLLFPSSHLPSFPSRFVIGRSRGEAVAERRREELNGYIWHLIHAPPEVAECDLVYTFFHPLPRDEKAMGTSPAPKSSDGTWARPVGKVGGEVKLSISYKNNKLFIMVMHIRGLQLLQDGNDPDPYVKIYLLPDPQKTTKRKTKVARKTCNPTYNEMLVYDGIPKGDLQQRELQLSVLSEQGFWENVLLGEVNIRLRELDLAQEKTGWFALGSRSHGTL

On to `CC(C)n1ncnc1-c1cn2c(n1)-c1ccc(O[C@@H](C)C(N)=O)cc1OCC2` [GDC0326, (S)-2-((2-(1-Isopropyl-1H-1,2,4-triazol-5-yl)-5,6-dihydrobenzo[f]imidazo [1,2-d][1,4]oxazepin-9-yl)oxy)propanamide], for which the pIC50 at p110δ is 7.70; at p110γ, 7.29; on C2β, 6.58; on p110β it was 6.88; on C2α, less than 5.00; at vps34 it was 5.55. Further, the “activation of the stromal compartment (CD18 immune cell staining, picrosirius red collagen deposit staining)” value in assay [1] is “reversed the activation of the stromal compartment”. In addition, the lesion area result in assay [1] (day 17, compared to caerulein-treated KC mice that received vehicle) is recorded as “significant decrease of lesion area”. Moreover, the p-Akt substrate staining entry in assay [1] (day 17, vs vehicle) is “absence of p-Akt Subsrate staining”. Also, the pKi at mTOR is 5.37.
